Source: patent publication US5298488A, “CM-chitin derivatives and use thereof” (Fuji Photo Film Co., Ltd., priority 1990, dated 1994)
No end group written: not given here. succinylated CM‑chitin = succinylated carboxymethyl-chitin (CM-chitin), conjugated to the peptide; succinylated CM‑Chitin = succinylated CM-chitin

Key:
[1] = test system: human plasma rich in platelet; assay: Platelet coagulation-inhibitory activity in vitro, transmittance by aggregometer; format: cell-based; settings: 37° C., 3 minutes preincubation; for Platelet Coagulation-Inhibitory Action IC50, ADP Stimulation: ADP stimulation (50 μM ADP solution); for Platelet Coagulation-Inhibitory Action IC50, Collagen Stimulation: collagen stimulation (200 μg/ml collagen solution)
Procedure: The platelet coagulation-inhibitory effect of the CM-chitin derivative of the present invention was assayed, in vitro, using human plasma rich in platelet. The experimental method will be described below.
To fresh human blood, there was added 1/9 volume of a 3.8% sodium citrate solution, the resulting mixture was centrifuged (1000 rpm; for 10 minutes) and the upper layer was separated as a plasma rich in platelet. A lyophilized CM-chitin derivative was dissolved in physiological saline to give a plurality of solutions having various concentrations ranging from 0 to 1.5 mg/ml. Each of the solutions (25 μ1) was added to 200 µl of the plasma, incubated at 37° C. for 3 minutes, then a 50 μM of ADP (adenosine diphosphate) solution or a 200 μg/ml collagen solution was added to determine the extent of coagulation in terms of transmittance determined by an aggregometer.
Rate of Coagulation Inhibition=(1-T/T .)×100%
T . : transmittance observed when a salt of CM-chitin derivative was not added.
T : transmittance observed when a salt of CM-chitin derivative was added.

vitronectin = assay: Cell adhesion-inhibitory test against vitronectin (competitive assay, number of adhered cells); format: cell-based, human; settings: endothelium cells of blood vessel, 37° C., one hour, 0 control 249
Source text: (§1) A method for determining the activity of the CM-chitin derivatives of the present invention for inhibiting adhesion of cells to fibronectin or vitronectin will be described below. The competitive assays used herein have widely been employed tin the field of biochemistry and are detailed in, for instance, "Method in Enzymology", 1981, 82, pp. 803-831; and J. P. KOKAI Nos. Hei 1-309682 and Hei 2-174797.
(§2) Commercially available fibroneotin (derived from human; purchased from Seikaqaku Kogyo K. K.) and vitronectin (derived from human; purchased from Funakoshi Co., Ltd.) each was diluted to 1.0 μ1/ml and 2.0 μ1/ml with PBS (NaH2 PO4 0.005 M+NaCl 0.07 M), 0.5 ml of the resulting diluted solution was dispensed into a plastic plate having 24 wells and incubated at 37° C. overnight to perform coating of the plate. Then bovine serum albumin (BSA 1%) was added followed by incubation at 37° C. for one hour for inhibiting the occurrence of nonspecific adsorption, then washing with PBS in the usual manner and sufficient drainage to give an adsorption plate.
[…] Each of the solutions (0.25 ml) was dispensed to the plate prepared above, 0.25 ml of a suspension of endothelium cells of blood vessel (4×10^6 cells/ml) was added to the plate and incubated at 37° C. for one hour to thus cause cohesion of the cells. The plate was washed three times with DMEM medium to remove non-adhesive cells, then the adhered cells were peeled off with a 0.025% EDTA trypsin solution and stained with a 2% Trypan Blue solution to determine the number of the adhered cells.

fibronectin = assay: Cell adhesion-inhibitory test against fibronectin (competitive assay, number of adhered cells); format: cell-based, human; settings: endothelium cells of blood vessel, 37° C., one hour, 0 mg/ml control 160
Source text: as §1, §2
A CM-chitin derivative obtained through lyophilization was diluted with Dulbecco's Modified Eagles Medium (hereunder referred to as "DMEM") to give solutions of the CM-chitin derivative having concentrations of 0, 0.25, 0.5, 1.0 and 1.5 mg/ml respectively. Each of the solutions (0.25 ml) was dispensed to the plate prepared above, 0.25 ml of a suspension of endothelium cells of blood vessel (4×10^6 cells/ml) was added to the plate and incubated at 37° C. for one hour to thus cause cohesion of the cells. The plate was washed three times with DMEM medium to remove non-adhesive cells, then the adhered cells were peeled off with a 0.025% EDTA trypsin solution and stained with a 2% Trypan Blue solution to determine the number of the adhered cells.

[2] = concentration 10 mg/ml (so in the source)
[3] = concentration 50 mg/ml (so in the source)
[4] = concentration 100 mg/ml (so in the source)
[5] = concentration 300 mg/ml (so in the source)

Row | Substance | Platelet Coagulation-Inhibitory Action IC50, ADP Stimulation [1] | Platelet Coagulation-Inhibitory Action IC50, Collagen Stimulation [1] | Cell Adhesion-Inhibitory effect Against Vitronectin (number of adhered cells) (vitronectin; [2]) | Cell Adhesion-Inhibitory effect Against Vitronectin (number of adhered cells) (vitronectin; [3]) | Cell Adhesion-Inhibitory effect Against Vitronectin (number of adhered cells) (vitronectin; [4]) | Cell Adhesion-Inhibitory effect Against Vitronectin (number of adhered cells) (vitronectin; [5]) | Cell Adhesion-Inhibitory effect Against Fibronectin (number of adhered cells) (fibronectin; concentration 0.5 mg/ml) | Cell Adhesion-Inhibitory effect Against Fibronectin (number of adhered cells) (fibronectin; concentration 1.0 mg/ml) | Cell Adhesion-Inhibitory effect Against Fibronectin (number of adhered cells) (fibronectin; concentration 1.5 mg/ml) | Cell Adhesion-Inhibitory effect Against Fibronectin (number of adhered cells) (fibronectin; concentration .25 mg/ml)
1 | Succinylated CM-Chitin-(Arg-Gly-Asp)2 ({succinylated CM‑Chitin}-RGDRGD) [CM--chitin derivative-10] | 20 µg/mL | 13 µg/mL | 136 cell/well | 86 cell/well | 71 cell/well | 43 cell/well | 110 cell/well | 87 cell/well | 73 cell/well | 122 cell/well
2 | Succinylated CM-Chitin-(Arg-Gly-Asp)3 ({succinylated CM‑Chitin}-RGDRGDRGD) [CM--chitin derivative-11] | 21 µg/mL | 12 µg/mL | 147 cell/well | 100 cell/well | 73 cell/well | 45 cell/well | 125 cell/well | 78 cell/well | 70 cell/well | 143 cell/well
3 | Succinylated CM-Chitin-(Arg-Gly-Asp)5 ({succinylated CM‑Chitin}-RGDRGDRGDRGDRGD) [CM--chitin derivative-12] | 30 µg/mL | 8 µg/mL | 150 cell/well | 101 cell/well | 80 cell/well | 59 cell/well | 101 cell/well | 89 cell/well | 77 cell/well | 125 cell/well
4 | Succinylated CM-Chitin-Arg-Gly-Asp-Ser ({succinylated CM‑chitin}-RGDS) [CM--chitin derivative-2] | 18 µg/mL | 10 µg/mL | 137 cell/well | 96 cell/well | 78 cell/well | 59 cell/well | 99 cell/well | 82 cell/well | 75 cell/well | 135 cell/well
